{"source": "paper PMC3707936", "about": "(Molecular cancer therapeutics, 2013)", "key": {"[1]": {"test_system": "phospho-AKT (Ser473)", "test": "Western blot, phospho-AKT", "format": "cell-based", "details": "GIST 882 cells, all auranofin treatments, 6 h; site not specified"}, "[2]": {"test_system": "thioredoxin reductase (TrxR)", "details": "for TrxR activity: 6 h"}, "[3]": {"test_system": "GIST T1-10R cells", "test": "Early apoptosis assay", "format": "cell-based", "details": "1 μM, 24 h, Annexin V"}, "[4]": {"test_system": "GIST T1-10R cells", "test": "Hit validation cell proliferation, 12-point dose-response, GIST T1-10R", "format": "cell-based"}, "[5]": {"test_system": "Caspase 3/7", "test": "Caspase 3/7 activity assay in GIST cells", "format": "cell-based", "details": "0.1 and 1 μM, 72 hours"}, "[6]": {"test_system": "GIST 882 cells", "test": "Hit validation cell proliferation, 12-point dose-response, GIST 882", "format": "cell-based", "details": "GIST 882, 1 μM, 72 hour"}, "[7]": {"test_system": "phospho-c-KIT (Tyr719)", "test": "Western blot, phospho-c-KIT in GIST cells", "format": "cell-based"}, "[8]": {"test_system": "GIST-T1 cells", "test": "Quantitative drug screen, CellTiter-Blue cell viability, GIST-T1", "format": "cell-based", "details": "read-out: IC50 GIST-T1; primary screen, 72 h, 10 μM to […] twofold dilutions; * = IC50 < 0.07 μM and drug showed no dose response"}, "[9]": {"test_system": "GIST-T1 cells", "test": "Early apoptosis assay", "format": "cell-based", "details": "GIST-T1, 1 μM, 24 h, Annexin V"}, "[10]": {"test_system": "phospho-ERK1/2 (Thr202/Tyr204)", "test": "Western blot, phospho-ERK1/2 in GIST cells", "format": "cell-based", "details": "for pERK1/2 level, fold change: GIST T1-10R cells, 6 hours"}, "[11]": {"test_system": "GIST-T1 cells", "test": "Hit validation cell proliferation, 12-point dose-response, GIST-T1", "format": "cell-based"}, "[12]": {"test_system": "reactive oxygen species (ROS)", "test": "Intracellular ROS activity measurement", "format": "cell-based"}, "[13]": {"test_system": "GIST 882 cells", "test": "Early apoptosis assay", "format": "cell-based", "details": "GIST 882, 1 μM, 24 h, Annexin V"}, "[14]": {"details": "GIST 882 cells, all auranofin treatments, 6 h"}}, "note": "Read-outs that look alike come from different tables or passages of the source.", "data": [{"molecule": "CC(=O)OC[C@H]1O[C@@H]([S-])[C@H](OC(C)=O)[C@@H](OC(C)=O)[C@@H]1OC(C)=O.CCP(CC)CC.[Au+]", "note": "[Auranofin]", "values": [{"measurement": "phosphorylated level of AKT", "setting": "[1]", "value": "does not noticeably alter"}, {"measurement": "TrxR activity", "setting": "[2]; GIST T1-10R cells, 0.01 and 0.1 μM", "value": "significant decrease"}, {"measurement": "TrxR activity", "setting": "[2]; all three GIST cell lines, 1.0 and 10 μM", "value": "dramatically reduces"}, {"measurement": "TrxR enzymatic activity", "setting": "[2]; exposure up to 24 hours at 1 μM", "value": "inhibited"}, {"measurement": "fraction of early apoptotic cells, fold increase", "setting": "[3]", "value": "~ 2.8 fold"}, {"measurement": "cell viability", "setting": "[4]; GIST T1-10R, 1 μM, 72 hour", "value": "decrease in cell viability"}, {"measurement": "cell proliferation induced by low-dose treatment, fold", "setting": "[4]; GIST T1-10R, low-dose, 72 hour", "value": "1.1–1.2 fold"}, {"measurement": "IC50", "setting": "[4]; read-out: IC50 GIST T1-10R, hit validation, 12-point 20 μM to 1 nM, triplicate, 72 h", "value": "20 ± 10", "unit": "nM"}, {"measurement": "Caspase 3/7 activity", "setting": "[5]", "value": "able to increase"}, {"measurement": "cell viability", "setting": "[6]", "value": "decrease in cell viability"}, {"measurement": "phosphorylated level of cKIT", "setting": "[7]; [14]", "value": "does not noticeably alter"}, {"measurement": "p-cKT level, fold change", "setting": "[7]; GIST-T1 cells, 1 or 10 μM, 6 hours", "value": "~ 0.5 fold"}, {"measurement": "IC50", "setting": "[8]", "value": 230, "unit": "nM"}, {"measurement": "fraction of early apoptotic cells, fold increase", "setting": "[9]", "value": "~ 4 fold"}, {"measurement": "phosphorylated level of ERK", "setting": "[10]; [14]", "value": "does not noticeably alter"}, {"measurement": "pERK1/2 level, fold change", "setting": "[10]; 0.01 μM", "value": "~ 3.0 fold"}, {"measurement": "pERK1/2 level, fold change", "setting": "[10]; 0.1 μM", "value": "~ 3.6 fold"}, {"measurement": "pERK1/2 level, fold change", "setting": "[10]; 1 μM", "value": "~ 2.7 fold"}, {"measurement": "pERK1/2 level, fold change", "setting": "[10]; 010 μM", "value": "~ 2.4 fold"}, {"measurement": "cell viability", "setting": "[11]; GIST-T1, 1 μM, 72 hour", "value": "decrease in cell viability"}, {"measurement": "cell proliferation induced by low-dose treatment, fold", "setting": "[11]; GIST-T1, low-dose, 72 hour", "value": "1.1–1.2 fold"}, {"measurement": "IC50", "setting": "[11]; read-out: IC50 GIST-T1, hit validation, 12-point 20 μM to 1 nM, triplicate, 72 h", "value": "250 ± 150", "unit": "nM"}, {"measurement": "ROS production, fold change", "setting": "[12]; GIST 882 cells, 1 and 10 μM, 6 h", "value": 1.5, "unit": "fold"}, {"measurement": "ROS, fold change vs vehicle-treated cells", "setting": "[12]; GIST 882 cells, across all auranofin treatments", "value": "~ 1.5 fold"}, {"measurement": "ROS formation, fold change", "setting": "[12]; GIST T1-10R cells, 1 and 10 μM, 6 h", "value": 2.6, "unit": "fold"}, {"measurement": "ROS", "setting": "[12]; all three GIST cell lines, 0.01 and 0.1 μM, 6 h", "value": "remained relatively stable"}, {"measurement": "ROS production with longer treatment", "setting": "[12]; all three GIST cell lines, longer treatment", "value": "induces higher production of ROS"}, {"measurement": "fraction of early apoptotic cells, fold increase", "setting": "[13]", "value": "~ 2.3 fold"}]}]}
